Assay results from patent US7118895B2, “Process for producing aglycon by using diglycosidase and flavor-improved food containing the aglycon and converting agent to be used in the process” (Amano Enzyme Inc., priority 2000, dated 2006).

Tested on: Crude diglycosidase
Assay: Examination of substrate concentration in the conversion into isoflavone aglycons by diglycosidase using soybean materials;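 also: percent of the isoflavone family total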
Format: biochemical, Penicillium multicolor IAM7153
How it was run: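 Reaction at 55° C, shaken, pH 4.0 (20 mM acetate), using crude diglycosidase from a 1.88 AU/mL enzyme solution on soy flour, soymilk, defatted soybean or soy protein concentrate at 2, 5, 10, 20 or 30% (w/v). Isoflavone aglycons quantified by HPLC of ethanol extracts at 0, 1, 3, 6 h.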

COc1cc2c(=O)c(-c3ccc(O)cc3)coc2cc1O [glycitein]
Decomposition efficiency: ratio of each glycoside/aglycon within its isoflavone family (concentrated soybean protein, substrate concentration 2%, heat treatment of enzyme no, reaction time 0 h): 11.6%
Decomposition efficiency: ratio of each glycoside/aglycon within its isoflavone family (concentrated soybean protein, substrate concentration 2%, heat treatment of enzyme no, reaction time 1 h): 85.3%
Decomposition efficiency: ratio of each glycoside/aglycon within its isoflavone family (concentrated soybean protein, substrate concentration 2%, heat treatment of enzyme no, reaction time 3 h): 94.4%
Decomposition efficiency: ratio of each glycoside/aglycon within its isoflavone family (concentrated soybean protein, substrate concentration 2%, heat treatment of enzyme no, reaction time 6 h): 100.0%
Decomposition efficiency: ratio of each glycoside/aglycon within its isoflavone family (concentrated soybean protein, substrate concentration 2%, heat treatment of enzyme yes, reaction time 6 h): 11.2%
Decomposition efficiency: ratio of each glycoside/aglycon within its isoflavone family (concentrated soybean protein, substrate concentration 5%, heat treatment of enzyme no, reaction time 0 h): 11.2%
Decomposition efficiency: ratio of each glycoside/aglycon within its isoflavone family (concentrated soybean protein, substrate concentration 5%, heat treatment of enzyme no, reaction time 1 h): 72.4%
Decomposition efficiency: ratio of each glycoside/aglycon within its isoflavone family (concentrated soybean protein, substrate concentration 5%, heat treatment of enzyme no, reaction time 3 h): 81.9%
Decomposition efficiency: ratio of each glycoside/aglycon within its isoflavone family (concentrated soybean protein, substrate concentration 5%, heat treatment of enzyme no, reaction time 6 h): 87.4%
Decomposition efficiency: ratio of each glycoside/aglycon within its isoflavone family (concentrated soybean protein, substrate concentration 5%, heat treatment of enzyme yes, reaction time 6 h): 11.3%
Decomposition efficiency: ratio of each glycoside/aglycon within its isoflavone family (concentrated soybean protein, substrate concentration 10%, heat treatment of enzyme no, reaction time 0 h): 11.0%
Decomposition efficiency: ratio of each glycoside/aglycon within its isoflavone family (concentrated soybean protein, substrate concentration 10%, heat treatment of enzyme no, reaction time 1 h): 66.8%
Decomposition efficiency: ratio of each glycoside/aglycon within its isoflavone family (concentrated soybean protein, substrate concentration 10%, heat treatment of enzyme no, reaction time 3 h): 73.5%
Decomposition efficiency: ratio of each glycoside/aglycon within its isoflavone family (concentrated soybean protein, substrate concentration 10%, heat treatment of enzyme no, reaction time 6 h): 75.8%
Decomposition efficiency: ratio of each glycoside/aglycon within its isoflavone family (concentrated soybean protein, substrate concentration 10%, heat treatment of enzyme yes, reaction time 6 h): 11.1%
Decomposition efficiency: ratio of each glycoside/aglycon within its isoflavone family (concentrated soybean protein, substrate concentration 20%, heat treatment of enzyme no, reaction time 0 h): 10.8%
Decomposition efficiency: ratio of each glycoside/aglycon within its isoflavone family (concentrated soybean protein, substrate concentration 20%, heat treatment of enzyme no, reaction time 1 h): 51.2%
Decomposition efficiency: ratio of each glycoside/aglycon within its isoflavone family (concentrated soybean protein, substrate concentration 20%, heat treatment of enzyme no, reaction time 3 h): 66.2%
Decomposition efficiency: ratio of each glycoside/aglycon within its isoflavone family (concentrated soybean protein, substrate concentration 20%, heat treatment of enzyme no, reaction time 6 h): 69.2%
Decomposition efficiency: ratio of each glycoside/aglycon within its isoflavone family (concentrated soybean protein, substrate concentration 20%, heat treatment of enzyme yes, reaction time 6 h): 11.1%
Decomposition efficiency: ratio of each glycoside/aglycon within its isoflavone family (concentrated soybean protein, substrate concentration 30%, heat treatment of enzyme no, reaction time 0 h): 8.2%
Decomposition efficiency: ratio of each glycoside/aglycon within its isoflavone family (concentrated soybean protein, substrate concentration 30%, heat treatment of enzyme no, reaction time 1 h): 61.5%
Decomposition efficiency: ratio of each glycoside/aglycon within its isoflavone family (concentrated soybean protein, substrate concentration 30%, heat treatment of enzyme no, reaction time 3 h): 68.9%
Decomposition efficiency: ratio of each glycoside/aglycon within its isoflavone family (concentrated soybean protein, substrate concentration 30%, heat treatment of enzyme no, reaction time 6 h): 71.4%
Decomposition efficiency: ratio of each glycoside/aglycon within its isoflavone family (concentrated soybean protein, substrate concentration 30%, heat treatment of enzyme yes, reaction time 6 h): 8.2%
Decomposition efficiency: ratio of each glycoside/aglycon within its isoflavone family (defatted soybean, substrate concentration 2%, heat treatment of enzyme no, reaction time 0 h): not detected
Decomposition efficiency: ratio of each glycoside/aglycon within its isoflavone family (defatted soybean, substrate concentration 2%, heat treatment of enzyme no, reaction time 1 h): not detected
Decomposition efficiency: ratio of each glycoside/aglycon within its isoflavone family (defatted soybean, substrate concentration 2%, heat treatment of enzyme no, reaction time 3 h): not detected
Decomposition efficiency: ratio of each glycoside/aglycon within its isoflavone family (defatted soybean, substrate concentration 2%, heat treatment of enzyme no, reaction time 6 h): not detected
Decomposition efficiency: ratio of each glycoside/aglycon within its isoflavone family (defatted soybean, substrate concentration 2%, heat treatment of enzyme yes, reaction time 6 h): not detected
Decomposition efficiency: ratio of each glycoside/aglycon within its isoflavone family (defatted soybean, substrate concentration 5%, heat treatment of enzyme no, reaction time 0 h): 41.6%
Decomposition efficiency: ratio of each glycoside/aglycon within its isoflavone family (defatted soybean, substrate concentration 5%, heat treatment of enzyme no, reaction time 1 h): 58.4%
Decomposition efficiency: ratio of each glycoside/aglycon within its isoflavone family (defatted soybean, substrate concentration 5%, heat treatment of enzyme no, reaction time 3 h): 68.2%
Decomposition efficiency: ratio of each glycoside/aglycon within its isoflavone family (defatted soybean, substrate concentration 5%, heat treatment of enzyme no, reaction time 6 h): 80.5%
Decomposition efficiency: ratio of each glycoside/aglycon within its isoflavone family (defatted soybean, substrate concentration 5%, heat treatment of enzyme yes, reaction time 6 h): 41.5%
Decomposition efficiency: ratio of each glycoside/aglycon within its isoflavone family (defatted soybean, substrate concentration 10%, heat treatment of enzyme no, reaction time 0 h): 47.0%
Decomposition efficiency: ratio of each glycoside/aglycon within its isoflavone family (defatted soybean, substrate concentration 10%, heat treatment of enzyme no, reaction time 1 h): 45.3%
Decomposition efficiency: ratio of each glycoside/aglycon within its isoflavone family (defatted soybean, substrate concentration 10%, heat treatment of enzyme no, reaction time 3 h): 63.4%
Decomposition efficiency: ratio of each glycoside/aglycon within its isoflavone family (defatted soybean, substrate concentration 10%, heat treatment of enzyme no, reaction time 6 h): 72.1%
Decomposition efficiency: ratio of each glycoside/aglycon within its isoflavone family (defatted soybean, substrate concentration 10%, heat treatment of enzyme yes, reaction time 6 h): 42.4%
Decomposition efficiency: ratio of each glycoside/aglycon within its isoflavone family (roasted soy flour, substrate concentration 2%, heat treatment of enzyme no, reaction time 0 h): 16.2%
Decomposition efficiency: ratio of each glycoside/aglycon within its isoflavone family (roasted soy flour, substrate concentration 2%, heat treatment of enzyme no, reaction time 1 h): 100.0%
Decomposition efficiency: ratio of each glycoside/aglycon within its isoflavone family (roasted soy flour, substrate concentration 2%, heat treatment of enzyme no, reaction time 3 h): 100.0%
Decomposition efficiency: ratio of each glycoside/aglycon within its isoflavone family (roasted soy flour, substrate concentration 2%, heat treatment of enzyme no, reaction time 6 h): 100.0%
Decomposition efficiency: ratio of each glycoside/aglycon within its isoflavone family (roasted soy flour, substrate concentration 2%, heat treatment of enzyme yes, reaction time 6 h): 12.2%
Decomposition efficiency: ratio of each glycoside/aglycon within its isoflavone family (roasted soy flour, substrate concentration 5%, heat treatment of enzyme no, reaction time 0 h): 11.4%
Decomposition efficiency: ratio of each glycoside/aglycon within its isoflavone family (roasted soy flour, substrate concentration 5%, heat treatment of enzyme no, reaction time 1 h): 88.2%
Decomposition efficiency: ratio of each glycoside/aglycon within its isoflavone family (roasted soy flour, substrate concentration 5%, heat treatment of enzyme no, reaction time 3 h): 92.8%
Decomposition efficiency: ratio of each glycoside/aglycon within its isoflavone family (roasted soy flour, substrate concentration 5%, heat treatment of enzyme no, reaction time 6 h): 100.0%
Decomposition efficiency: ratio of each glycoside/aglycon within its isoflavone family (roasted soy flour, substrate concentration 5%, heat treatment of enzyme yes, reaction time 6 h): 11.4%
Decomposition efficiency: ratio of each glycoside/aglycon within its isoflavone family (roasted soy flour, substrate concentration 10%, heat treatment of enzyme no, reaction time 0 h): 5.5%
Decomposition efficiency: ratio of each glycoside/aglycon within its isoflavone family (roasted soy flour, substrate concentration 10%, heat treatment of enzyme no, reaction time 1 h): 83.3%
Decomposition efficiency: ratio of each glycoside/aglycon within its isoflavone family (roasted soy flour, substrate concentration 10%, heat treatment of enzyme no, reaction time 3 h): 90.3%
Decomposition efficiency: ratio of each glycoside/aglycon within its isoflavone family (roasted soy flour, substrate concentration 10%, heat treatment of enzyme no, reaction time 6 h): 100.0%
Decomposition efficiency: ratio of each glycoside/aglycon within its isoflavone family (roasted soy flour, substrate concentration 10%, heat treatment of enzyme yes, reaction time 6 h): 9.9%
Decomposition efficiency: ratio of each glycoside/aglycon within its isoflavone family (roasted soy flour, substrate concentration 20%, heat treatment of enzyme no, reaction time 0 h): 8.6%
Decomposition efficiency: ratio of each glycoside/aglycon within its isoflavone family (roasted soy flour, substrate concentration 20%, heat treatment of enzyme no, reaction time 1 h): 77.1%
Decomposition efficiency: ratio of each glycoside/aglycon within its isoflavone family (roasted soy flour, substrate concentration 20%, heat treatment of enzyme no, reaction time 3 h): 86.2%
Decomposition efficiency: ratio of each glycoside/aglycon within its isoflavone family (roasted soy flour, substrate concentration 20%, heat treatment of enzyme no, reaction time 6 h): 90.0%
Decomposition efficiency: ratio of each glycoside/aglycon within its isoflavone family (roasted soy flour, substrate concentration 20%, heat treatment of enzyme yes, reaction time 6 h): 9.1%
Decomposition efficiency: ratio of each glycoside/aglycon within its isoflavone family (roasted soy flour, substrate concentration 30%, heat treatment of enzyme no, reaction time 0 h): 8.8%
Decomposition efficiency: ratio of each glycoside/aglycon within its isoflavone family (roasted soy flour, substrate concentration 30%, heat treatment of enzyme no, reaction time 1 h): 71.6%
Decomposition efficiency: ratio of each glycoside/aglycon within its isoflavone family (roasted soy flour, substrate concentration 30%, heat treatment of enzyme no, reaction time 3 h): 75.6%
Decomposition efficiency: ratio of each glycoside/aglycon within its isoflavone family (roasted soy flour, substrate concentration 30%, heat treatment of enzyme no, reaction time 6 h): 86.3%
Decomposition efficiency: ratio of each glycoside/aglycon within its isoflavone family (roasted soy flour, substrate concentration 30%, heat treatment of enzyme yes, reaction time 6 h): 8.7%
Decomposition efficiency: ratio of each glycoside/aglycon within its isoflavone family (soymilk, substrate concentration 2%, heat treatment of enzyme no, reaction time 0 h): not detected
Decomposition efficiency: ratio of each glycoside/aglycon within its isoflavone family (soymilk, substrate concentration 2%, heat treatment of enzyme no, reaction time 1 h): 100.0%
Decomposition efficiency: ratio of each glycoside/aglycon within its isoflavone family (soymilk, substrate concentration 2%, heat treatment of enzyme no, reaction time 3 h): 100.0%
Decomposition efficiency: ratio of each glycoside/aglycon within its isoflavone family (soymilk, substrate concentration 2%, heat treatment of enzyme no, reaction time 6 h): 100.0%
Decomposition efficiency: ratio of each glycoside/aglycon within its isoflavone family (soymilk, substrate concentration 2%, heat treatment of enzyme yes, reaction time 6 h): not detected
Decomposition efficiency: ratio of each glycoside/aglycon within its isoflavone family (soymilk, substrate concentration 5%, heat treatment of enzyme no, reaction time 0 h): not detected
Decomposition efficiency: ratio of each glycoside/aglycon within its isoflavone family (soymilk, substrate concentration 5%, heat treatment of enzyme no, reaction time 1 h): 75.4%
Decomposition efficiency: ratio of each glycoside/aglycon within its isoflavone family (soymilk, substrate concentration 5%, heat treatment of enzyme no, reaction time 3 h): 92.5%
Decomposition efficiency: ratio of each glycoside/aglycon within its isoflavone family (soymilk, substrate concentration 5%, heat treatment of enzyme no, reaction time 6 h): 100.0%
Decomposition efficiency: ratio of each glycoside/aglycon within its isoflavone family (soymilk, substrate concentration 5%, heat treatment of enzyme yes, reaction time 6 h): not detected
Decomposition efficiency: ratio of each glycoside/aglycon within its isoflavone family (soymilk, substrate concentration 10%, heat treatment of enzyme no, reaction time 0 h): 6.4%
Decomposition efficiency: ratio of each glycoside/aglycon within its isoflavone family (soymilk, substrate concentration 10%, heat treatment of enzyme no, reaction time 1 h): 73.6%
Decomposition efficiency: ratio of each glycoside/aglycon within its isoflavone family (soymilk, substrate concentration 10%, heat treatment of enzyme no, reaction time 3 h): 89.5%
Decomposition efficiency: ratio of each glycoside/aglycon within its isoflavone family (soymilk, substrate concentration 10%, heat treatment of enzyme no, reaction time 6 h): 95.8%
Decomposition efficiency: ratio of each glycoside/aglycon within its isoflavone family (soymilk, substrate concentration 10%, heat treatment of enzyme yes, reaction time 6 h): 6.2%
Decomposition efficiency: ratio of each glycoside/aglycon within its isoflavone family (soymilk, substrate concentration 20%, heat treatment of enzyme no, reaction time 0 h): 6.3%
Decomposition efficiency: ratio of each glycoside/aglycon within its isoflavone family (soymilk, substrate concentration 20%, heat treatment of enzyme no, reaction time 1 h): 72.2%
Decomposition efficiency: ratio of each glycoside/aglycon within its isoflavone family (soymilk, substrate concentration 20%, heat treatment of enzyme no, reaction time 3 h): 90.6%
Decomposition efficiency: ratio of each glycoside/aglycon within its isoflavone family (soymilk, substrate concentration 20%, heat treatment of enzyme no, reaction time 6 h): 94.1%
Decomposition efficiency: ratio of each glycoside/aglycon within its isoflavone family (soymilk, substrate concentration 20%, heat treatment of enzyme yes, reaction time 6 h): 5.7%
Decomposition efficiency: ratio of each glycoside/aglycon within its isoflavone family (soymilk, substrate concentration 30%, heat treatment of enzyme no, reaction time 0 h): 6.1%
Decomposition efficiency: ratio of each glycoside/aglycon within its isoflavone family (soymilk, substrate concentration 30%, heat treatment of enzyme no, reaction time 1 h): 66.9%
Decomposition efficiency: ratio of each glycoside/aglycon within its isoflavone family (soymilk, substrate concentration 30%, heat treatment of enzyme no, reaction time 3 h): 84.1%
Decomposition efficiency: ratio of each glycoside/aglycon within its isoflavone family (soymilk, substrate concentration 30%, heat treatment of enzyme no, reaction time 6 h): 92.3%
Decomposition efficiency: ratio of each glycoside/aglycon within its isoflavone family (soymilk, substrate concentration 30%, heat treatment of enzyme yes, reaction time 6 h): 6.7%
